Laboratory results: PMC5106290 (Bioorganic & medicinal chemistry, 2014)
Read-outs that look alike come from different tables or passages of the source.

Experiments:
L. i. chagasi = type: in vivo, Leishmania infantum chagasi; conditions: infected BALB/c mice
RAW 264.7 cells = type: cell-based, murine; conditions: Table 1 and text, 48 h, MTT
[1] = test system: promastigote of Leishmania amazonensis; conditions: ref Medeiros et al. 21; cited from earlier work
[2] = 100 mg/kg IP once a day for 30 days
[3] = Glucantime 80 mg/Kg intra muscular once a day for 30 days

In the case of C=CCc1ccc(OC(C)=O)c(OC)c1 [Acetyl-Eugenol, O-acetyl-eugenol], the “Presence of amastigotes in spleen (immunohistochemistry, qualitative)” value (from here on “Presence of amastigotes in spleen”) (L. i. chagasi; [2]) was “could not be visualized”.

In the case of CC(=O)Oc1cc(C)ccc1C(C)C [Acetyl-Thymol, O-acetyl-thymol], the “Toxicity % RAW 264.7 cells survival at 100 μg/mL (±SD)” value (RAW 264.7 cells) was “not toxic” and the “Amount of amastigotes seen in spleen stain” value (L. i. chagasi; [2]) was “regular amount of parasites”.

In the case of C=CCc1ccc(OC(=O)c2ccccc2)c(OC)c1 [Benzoyl-Eugenol, O-benzoyl-eugenol], the “Presence of amastigotes in spleen” value (L. i. chagasi; [2]) was “could not be visualized”.

In the case of Cc1ccc(C(C)C)c(OC(=O)c2ccccc2)c1 [Benzoyl-Thymol, O-benzoyl-thymol], the “Presence of amastigotes in spleen” value (L. i. chagasi; [2]) was “could not be visualized”.

In the case of Cc1ccc(C(C)C)c(O)c1 [Thymol], the “EC50 against promastigote of Leishmania amazonensis” value [1] is given as 19.4 µg/mL.

In the case of “antimoniate N-methyl glucamine [Glucantime, reference compound]”, the “Amount of amastigotes seen in spleen stain” value (L. i. chagasi; [3]) was “only a few amastigotes” and the “Presence of amastigotes in spleen” value (L. i. chagasi; [3]) was “visible”.
